The test system of one data set is c-Myc. Kind of data set: c-Myc reporter gene assay (Qiagen), Firefly/Renilla ratio, HEK293T cells. The data set is classed as cell-based. On the procedure:
The activity of Compound 1 against Myc was measured as a Firefly/Renilla ratio, using the Myc reporter assay (Qiagen) in HEK293T cells after treatment with Compound 1 for 16 hours. Results are expressed as a mean+/−SD (n=3). SD: standard deviation.
Select compounds described herein that were SMM assay positives were evaluated in several versions of a c-Myc reporter gene assay, including a commercial assay from Qiagen. The compounds' activities against c-Myc were measured as a Firefly/Renilla ratio, using the Myc reporter assay (Qiagen) in HEK293T cells after treatment with the compounds for 16 hours.
A general note: A reporter such as luciferase makes a cellular process visible.

A further data set has as its system P493-6 Myc ON cells. Kind of data set: Cell viability, CELL TITER GLO, P493-6 Myc ON. The data set is classed as cell-based, human. An excerpt:
(§1) FIGS. 3A to 3B show exemplary results of an assay of cell viability and the selectivity of Compound 1 for cells expressing Myc and non-Myc expressing cells. Compound 1 affected cell viability after treatment with Compound 1 for 3 days, as measured using CELL TITER GLO (Promega) in a cancer cell line (P493-6, derived from human B-cells), where Myc is ON (FIG. 3A) or Myc is OFF (FIG. 3B). Results were expressed as a mean+/−SEM (n=3). RLU: Relative Luminescence Units.
(§2) The selectivity of Compound 1 for cells expressing Myc over non-Myc expressing cells in cancer cell line P493-6 (engineered cell line derived from human B-cells) was determined. Adding doxycycline to P493-6 growth media shuts off Myc transcription. Exemplary results are shown in FIGS. 3A to 3B, where cell viability was assessed by CELL TITER GLO assay (Promega). FIG. 3A depicts the assay results for cells expressing Myc, and FIG. 3B depicts the assay results for non-Myc expressing cells. […] The selectivity of other compounds described herein in cancer cell line cancer cell line P493-6 was also determined, and exemplary results are shown in Table 2, where viability was assessed by CELL TITER GLO assay (Promega).

For the next data set, the system named is P493-6 Myc OFF cells. The data set is described as follows: Cell viability, CELL TITER GLO, P493-6 Myc OFF. The data set is classed as cell-based, human.
Source text: as §1, §2
A general note: Cellular ATP, detected with luciferase, serves as a proxy for viable cell number.

Data set [1] can be described thus: Aqueous solubility at 25° C. The data set is classed as physicochemical.
Data set [2] is described as follows: Intrinsic clearance, liver microsomes. To be noted: Intrinsic clearance (liver microsomes, human). The data set is classed as in vitro ADME.
The test system of data set [3] is ST486, CA46, NCI-H1963, GBM4 cancer cell lines. The data set is described as follows: Cell viability, CELL TITER GLO, cancer cell lines ST486, CA46, NCI-H1963, GBM4. The data set is classed as cell-based. The note with it: 3 days treatment (4 days GBM4). On the procedure:
Compound 1 affected cell viability after treatment with Compound 1 for 3 days (and 4 days for GBM4 and NHA), as measured using CELL TITER GLO (Promega) in 4 different cancer cell lines: ST486 (Burkitt's lymphoma; FIG. 2), CA46 (Burkitt's lymphoma; FIG. 2), NCI-H1963 (small cell lung cancer; FIG. 2), and GBM4 (glioblastoma; FIG. 2). The cell viability of normal human astrocytes (NHA) was also assayed. Results were expressed as a mean+/−SEM (n=2). The effect of Compound 1 on cell viability in several cancer cell lines and normal human astrocytes (NHA) was determined. The cancer cell lines employed in the assay included those corresponding to Burkitt's lymphoma (ST486 and CA46), small cell lung cancer (NCI-H1963), and glioblastoma (GBM4). The cell viability of normal human astrocytes (NHA) was also assayed. Exemplary results are shown in FIG. 2, where viability was assessed by CELL TITER GLO assay (Promega). […] The effects of other compounds described herein on cell viability in several cancer cell lines were also determined, and exemplary results are shown in Table 2, where viability was assessed by CELL TITER GLO assay (Promega).

For another data set, the system named is P3HR1. Kind of data set: Viability assay in P3HR1. The data set is classed as cell-based. To be noted: Homo sapiens, P3HR-1; P3HR1, non-engineered cell line.
A further data set relates to ST-486. Kind of data set: Viability assay in ST-486. The note with it: Homo sapiens, ST486; ST-486, non-engineered cell line. The data set is classed as cell-based.
For the next data set, the target named is c-Myc/Max heterodimer (Homo sapiens, UniProt P61244). The data set is described as follows: Electrophoretic mobility shift assay, c-Myc/Max heterodimer. The data set is classed as binding. An excerpt: (§3) This leads to a hypothesize that KI-MS2-008 stabilizes the Max homodimer.
Chain of c-Myc/Max heterodimer (P61244 whole entry, one chain of several): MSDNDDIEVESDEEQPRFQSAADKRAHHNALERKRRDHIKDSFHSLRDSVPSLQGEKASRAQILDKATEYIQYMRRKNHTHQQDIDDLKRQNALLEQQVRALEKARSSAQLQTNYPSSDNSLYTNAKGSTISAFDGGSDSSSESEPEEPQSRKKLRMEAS
For orientation: A gel shift assay detects complexes by their altered migration in electrophoresis.

In data set [4] the target is T1, Max homodimer (Homo sapiens, UniProt P61244). Kind of data set: EMSA with recombinant Max, homodimer binding to DNA.
T1 sequence (P61244 whole entry): as the sequence (P61244 whole entry, one chain of several) above
Source text: as §3

Data set [5] addresses T1, Max homodimer. The data set is described as follows: fPLC quantification of Max monomer vs. Max homodimer. The data set is classed as binding. To be noted: monomer vs. homodimer populations.
Source text: as §3

A further data set has as its system Myc. The data set is described as follows: Myc protein levels. The data set is classed as cell-based. To be noted: recovered by proteasome inhibition.
The next data set has as its system Myc transcript. The data set is described as follows: qPCR of Myc transcript levels. The data set is classed as cell-based.
The next data set relates to MYC-driven T-ALL model. The data set is described as follows: MYC-driven T-ALL / lymphoma model, Luc-labeled cells transplanted into NSG mice. The data set is classed as in vivo.
Setting [6] is: Homo sapiens, HEK-293T, HEK293T cells, 16 hours, Table 2, read-out: c-Myc reporter assay IC50.
Where [7] appears, read: Homo sapiens, HEK-293T, read-out: IC50 value in Myc reporter assay.
Where [8] appears, read: Table 3, read-out: IC50 Reporter assay.
Setting [9] is: Table 3, read-out: IC50 Myc OFF.

Values after ≈ are worked out from the molar mass of the structure shown. Read-outs that look alike come from different tables or passages of the source.

The solubility is how much of the substance goes into solution per volume. The low end stands for a poorly soluble substance, the high end for a readily soluble substance. By half-life is commonly meant the time needed for the level to fall by half in the phase considered.

With `O=C1N(CCS(=O)(=O)c2ccccc2)Cc2ccccc2[C@@H]2OC(c3ccc(OCCCO)cc3)=N[C@]12Cc1ccccc1` [Compound 1], the IC50 came to 1.99 µM with c-Myc (setting [6]); 2.77 µM with c-Myc (setting [7]); 6.8 µM in the data set with P493-6 Myc ON cells (Homo sapiens, P493-6, CELL TITER GLO, Table 2, read-out: P493-6 Myc ON Viability in cells); 58.1 µM in the data set with P493-6 Myc OFF cells (Homo sapiens, P493-6, CELL TITER GLO, Table 2, read-out: P493-6 Myc OFF Viability in cells). Moreover, the “Selectivity for cells expressing Myc over non-Myc expressing cells” value with P493-6 Myc ON cells (P493-6, Myc ON vs. Myc OFF (doxycycline)) is recorded as “demonstrated a selectivity for cells expressing Myc”. The solubility was 51.2 µM (≈ 31.3 µg/mL) in [1] (Aqueous solubility (simulated gastric fluid)); 9.2 µM (≈ 5.62 µg/mL) in data set [1] (aqueous buffer, Aqueous solubility (PBS, pH 7.4)); 200 µM (≈ 122 µg/mL) in [1] (fassgf or other biorelevant, Aqueous solubility (simulated intestinal fluid)). Further, the half-life in data set [2] was 21 min. Moreover, the “Effect on cell viability” value in data set [3] is reported as “demonstrated an effect in cell viability”.

As to `C#CCNC(=O)CN1Cc2ccccc2[C@@H]2OC(c3ccccc3)=N[C@]2(Cc2ccccc2)C1=O` [Compound 11a], the IC50 in the data set on c-Myc (setting [8]) is 10.1 µM.

For `O=C1N(CCS(=O)(=O)c2ccccc2)Cc2ccccc2[C@@H]2OC(c3ccccc3)=N[C@]12Cc1ccccc1` [KI-MS2-008], the IC50 with P3HR1 stood at 51.1 µM; in the data set with ST-486, 18.7 µM. For the same compound, at c-Myc/Max heterodimer, the “Disruption of c-Myc/Max heterodimer (EMSA)” value is “does not disrupt the c-Myc/Max heterodimer”. Further, the “Max homodimer binding to DNA (EMSA)” value at Max homodimer [4] was “dose-dependent increase of Max homodimer binding to DNA”. In addition, the “Induced dimerization of the Max homodimer” value at Max homodimer [5] turned out to be 9.9%. Further, the Myc protein levels result in the data set with Myc is reported as “decreases Myc protein levels”. The Myc transcript levels entry in the data set with Myc transcript is listed as “decreases Myc transcript levels”. Further, in the data set on MYC-driven T-ALL model, the Tumor volume entry is reported as “impacts tumor volume”.

For `O=C1NCc2ccccc2[C@@H]2OC(c3ccccc3)=N[C@]12Cc1ccccc1` [Compound 2a], the IC50 is 16.8 µM with c-Myc (setting [8]); over 50 µM with P493-6 Myc ON cells (Table 3, read-out: IC50 Myc ON); over 50 µM with P493-6 Myc OFF cells (setting [9]).

For the compound `C=CCN1Cc2ccccc2[C@@H]2OC(c3ccccc3)=N[C@]2(Cc2ccccc2)C1=O` [Compound 4a], the IC50 with c-Myc (setting [8]) is 7.67 µM; with P493-6 Myc ON cells (Table 3, read-out: IC50 Myc ON), 31.8 µM; in the data set on P493-6 Myc OFF cells (setting [9]), over 50 µM.

As to `O=C(CCCCC1SCC2NC(=O)NC21)NCCOCCOCCNC(=O)OCCCOc1ccc(C2=N[C@]3(Cc4ccccc4)C(=O)N(CCS(=O)(=O)c4ccccc4)Cc4ccccc4[C@@H]3O2)cc1` (stereo partly drawn) [Compound 5], the IC50 in the data set on c-Myc (setting [6]) was found to be 5.38 µM; with c-Myc (setting [7]), 5.4 µM.

For `O=C1NCc2ccccc2[C@@H]2OC(c3ccccc3)=N[C@H]12` [Compound 1a], the IC50 in the data set with c-Myc (setting [8]) was over 50 µM.

Take `COC(=O)[C@@]1(Cc2ccccc2)N=C(c2ccccc2)O[C@H]1c1ccccc1CN=[N+]=[N-]` [Compound 6, Methyl (4S,5S)-5-(2-(azidomethyl)phenyl)-4-benzyl-2-phenyl-4,5-dihydrooxazole-4-carboxylate]: in the data set with c-Myc (setting [6]), the IC50 is 4.67 µM.

Take `O=C(O)CN1Cc2ccccc2[C@@H]2OC(c3ccccc3)=N[C@]2(Cc2ccccc2)C1=O` [Compound 8a]: the IC50 in the data set on c-Myc (setting [8]) is over 50 µM; in the data set on P493-6 Myc ON cells (Table 3, read-out: IC50 Myc ON) it was over 50 µM; in the data set with P493-6 Myc OFF cells (setting [9]), over 50 µM.

On to `O=C1N(CCS(=O)(=O)c2ccccc2)Cc2ccccc2[C@@H]2OC(c3ccc(OCCCO)cc3)=N[C@]12Cc1ccccc1` (single isomer, unassigned) [15^a], for which the IC50 in the data set on c-Myc (HEK293T cells, 16 hours, Table 2, read-out: c-Myc reporter assay IC50) was 4.28 µM; with c-Myc (Table 3, listed as 15^b, read-out: IC50 Reporter assay), 4.74 µM; in the data set with c-Myc (Table 3, listed as 15^c, read-out: IC50 Reporter assay), 4.77 µM; with c-Myc (setting [8]), 11.7 µM; with P493-6 Myc ON cells (Table 3, listed as 15^b, read-out: IC50 Myc ON), 8.49 µM; in the data set on P493-6 Myc ON cells (Table 3, listed as 15^c, read-out: IC50 Myc ON), 16.6 µM. Besides, the IC50 is 14.5 µM in the data set with P493-6 Myc ON cells (Table 3, read-out: IC50 Myc ON) and over 50 µM in the data set with P493-6 Myc OFF cells (setting [9]).

Regarding `C#CCN(CC(=O)NCCNC(=O)CN1Cc2ccccc2[C@@H]2OC(c3ccccc3)=N[C@]2(Cc2ccccc2)C1=O)C(=O)CCC1(C)N=N1` [Compound 12a], the IC50 in the data set with c-Myc (setting [8]) stood at 18.7 µM.

Take `O=C1N(CCS(=O)(=O)c2ccccc2)Cc2ccccc2[C@@H]2OC(c3ccccc3)=N[C@]12Cc1ccccc1` [Compound 3a]: the IC50 in the data set on c-Myc (setting [8]) is 6.19 µM; in the data set with P493-6 Myc ON cells (Table 3, read-out: IC50 Myc ON), 11.4 µM; in the data set on P493-6 Myc OFF cells (setting [9]), over 50 µM.

Regarding `CCOC(=O)CN1Cc2ccccc2[C@@H]2OC(c3ccccc3)=N[C@]2(Cc2ccccc2)C1=O` [Compound 7a], the IC50 in the data set on c-Myc (setting [8]) is 3.38 µM; in the data set on P493-6 Myc ON cells (Table 3, read-out: IC50 Myc ON) it was 39.3 µM; in the data set with P493-6 Myc OFF cells (setting [9]), over 50 µM.

`O=C1N(CCO)Cc2ccccc2[C@@H]2OC(c3ccccc3)=N[C@]12Cc1ccccc1` [Compound 10a]: the IC50 in the data set with c-Myc (setting [8]) was 2.15 µM.
